PMC10540511 (Cellular and molecular life sciences : CMLS, 2023)
Where two headings read alike, the source gives them in different places.

What was measured:
CBM98 (BoGH13ASus CBM98) = biological target: T1, CBM98 (BoGH13ASus CBM98) (Bacteroides ovatus, UniProt A0ABU3ISA0); assay: isothermal titration calorimetry; format: binding; details: read-out: Kd (μM) ± SD; 25 °C, 20 mM HEPES pH 7.0, 100 mM NaCl
T1 sequence (A0ABU3ISA0 22-143): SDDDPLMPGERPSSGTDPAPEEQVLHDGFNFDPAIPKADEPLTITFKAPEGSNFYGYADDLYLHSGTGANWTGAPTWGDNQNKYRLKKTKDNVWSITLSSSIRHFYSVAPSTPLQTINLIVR

[1] = biological target: T2, CBM98-CBM48 (BoGH13ASus CBM98-CBM48) (Bacteroides ovatus, UniProt A0ABU3ISA0); assay: isothermal titration calorimetry; format: binding; details: read-out: Kd (μM) ± SD, 25 °C, 20 mM HEPES pH 7.0, 100 mM NaCl
T2 sequence (A0ABU3ISA0 22-296): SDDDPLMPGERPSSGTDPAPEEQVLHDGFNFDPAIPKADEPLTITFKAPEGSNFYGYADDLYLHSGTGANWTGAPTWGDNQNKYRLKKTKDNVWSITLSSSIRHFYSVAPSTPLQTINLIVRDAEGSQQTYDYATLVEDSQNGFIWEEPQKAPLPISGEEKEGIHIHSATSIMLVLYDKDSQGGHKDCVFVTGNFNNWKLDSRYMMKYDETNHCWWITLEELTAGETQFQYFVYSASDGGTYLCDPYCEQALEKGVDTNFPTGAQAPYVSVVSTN

[2] = standard-volume instrument, 25 μM protein

Kd (CBM98 (BoGH13ASus CBM98)) [µM]	Kd [1] [µM]	Kd [1, 2] [µM]	Structure (SMILES)
32 ± 9.8	33 ± 9.9		OC[C@H]1O[C@H](O[C@H]2[C@H](O)[C@@H](O)[C@@H](O[C@H]3[C@H](O)[C@@H](O)[C@@H](O[C@H]4[C@H](O)[C@@H](O)[C@@H](O[C@H]5[C@H](O)[C@@H](O)[C@@H](O[C@H]6[C@H](O)[C@@H](O)[C@@H](O[C@H]7[C@H](O)[C@@H](O)C(O)O[C@@H]7CO)O[C@@H]6CO)O[C@@H]5CO)O[C@@H]4CO)O[C@@H]3CO)O[C@@H]2CO)[C@H](O)[C@@H](O)[C@@H]1O (stereo partly drawn) [G7, maltoheptaose]
42 ± 13		43 ± 18	OC[C@H]1O[C@@H]2O[C@H]3[C@H](O)[C@@H](O)[C@@H](O[C@H]4[C@H](O)[C@@H](O)[C@@H](O[C@H]5[C@H](O)[C@@H](O)[C@@H](O[C@H]6[C@H](O)[C@@H](O)[C@@H](O[C@H]7[C@H](O)[C@@H](O)[C@@H](O[C@H]1[C@H](O)[C@H]2O)O[C@@H]7CO)O[C@@H]6CO)O[C@@H]5CO)O[C@@H]4CO)O[C@@H]3CO [αCD, α-cyclodextrin]
26 ± 3.8		21 ± 1.4	OC[C@H]1O[C@@H]2O[C@H]3[C@H](O)[C@@H](O)[C@@H](O[C@H]4[C@H](O)[C@@H](O)[C@@H](O[C@H]5[C@H](O)[C@@H](O)[C@@H](O[C@H]6[C@H](O)[C@@H](O)[C@@H](O[C@H]7[C@H](O)[C@@H](O)[C@@H](O[C@H]8[C@H](O)[C@@H](O)[C@@H](O[C@H]1[C@H](O)[C@H]2O)O[C@@H]8CO)O[C@@H]7CO)O[C@@H]6CO)O[C@@H]5CO)O[C@@H]4CO)O[C@@H]3CO [βCD, β-cyclodextrin]
